In patent publication US20220281831A1, “FUSED-GLUTARIMIDE CRBN LIGANDS AND USES THEREOF” (Kymera Therapeutics, Inc., priority 2019, published 2022) one finds IC50 data, which are given here for 48 compounds.

A value given as a limit tells only on which side of the number the result lay.

The target of assay [1] is His-tagged CRBN-DDB1 complex (Homo sapiens, UniProt Q96SW2). Put plainly: Time-Resolved Fluorescence Resonance Energy Transfer (TR-FRET / HTRF) CRBN binding assay, displacement of Cy5-labeled thalidomide. The note with it: His-CRBN-DDB1, Cy5-thalidomide 8 nM, 1 hour room temperature.
For assay [2], the target named is CRBN-DDB1 (Homo sapiens, UniProt Q96SW2). Description: Fluorescence Polarization (FP) CRBN binding assay, probe TM-493 (FAM-BB-100). To be noted: CRBN-DDB1, TM-493 probe, 60 min room temperature. As for the experimental part:
Fluorescence Polarization (FP) Assay
Materials: PerkinElmer EnVision 2104 Multilabel Reader, PerkinElmer FITC FP dual emission Label 2100-8060, Corning 384-well microplate #4514, V-CMR-TM-493 (FAM-BB-100), and CRBN-DDB1-180605.
Methods: Dilution buffer (50 mM HEPES-Na pH 7.5, 100 mM NaCl, 2 mM DTT, and 0.005% Tween-20) and compound DMSO dilutions were prepared. 4× compound working solutions were made with 8% DMSO (4×) and 13.8 μL/well of dilution buffer was placed in a new 96-well plate and 1.2 μL/well of above compound DMSO dilutions were added to the wells. 40 nM (4×) TM-493 in dilution buffer was prepared from a 10 μM DMSO stock and 15 μL per well of the TM-493 working solution was transferred into the compound working solution. 160 nM (2×) CRBN-DDB1 working solution was prepared with Dilution Buffer and 10 μL/well were added into a 384-well plate. 10 μL per well of the TM-493/compound mixture were transferred into the 384-well plate. The “positive control” was sample without protein and compound in 2% DMSO. After incubation at room temperature for 60 min, data was collected and read on data on an EnVision with the following setting: Excitation Light (%): 100; Measurement Height: 9.4; G-Factor: 1; Detector Gain 1: 200; Detector Gain 2: 200; Flash Number: 100. Data was processed using GraphPad Prism 7.0
The compound numbers correspond to the compound numbers in Table 1.
A general note: Polarisation of emitted light reports the rotation of a fluorescent probe.

Sequence of CRBN-DDB1 (Q96SW2 whole entry): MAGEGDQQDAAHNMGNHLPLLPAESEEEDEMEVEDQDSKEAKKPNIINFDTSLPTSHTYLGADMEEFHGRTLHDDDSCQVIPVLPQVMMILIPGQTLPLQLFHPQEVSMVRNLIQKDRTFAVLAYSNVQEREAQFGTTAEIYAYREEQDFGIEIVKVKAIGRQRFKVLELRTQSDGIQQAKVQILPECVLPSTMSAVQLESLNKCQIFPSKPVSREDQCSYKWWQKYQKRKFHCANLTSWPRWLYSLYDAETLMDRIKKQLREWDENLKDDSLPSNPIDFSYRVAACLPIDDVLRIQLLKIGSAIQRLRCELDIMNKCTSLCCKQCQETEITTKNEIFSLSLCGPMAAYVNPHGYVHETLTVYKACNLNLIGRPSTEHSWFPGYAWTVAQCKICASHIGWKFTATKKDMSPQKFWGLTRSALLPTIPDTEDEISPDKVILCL
Sequence of CRBN-DDB1 (Q16531 whole entry partner): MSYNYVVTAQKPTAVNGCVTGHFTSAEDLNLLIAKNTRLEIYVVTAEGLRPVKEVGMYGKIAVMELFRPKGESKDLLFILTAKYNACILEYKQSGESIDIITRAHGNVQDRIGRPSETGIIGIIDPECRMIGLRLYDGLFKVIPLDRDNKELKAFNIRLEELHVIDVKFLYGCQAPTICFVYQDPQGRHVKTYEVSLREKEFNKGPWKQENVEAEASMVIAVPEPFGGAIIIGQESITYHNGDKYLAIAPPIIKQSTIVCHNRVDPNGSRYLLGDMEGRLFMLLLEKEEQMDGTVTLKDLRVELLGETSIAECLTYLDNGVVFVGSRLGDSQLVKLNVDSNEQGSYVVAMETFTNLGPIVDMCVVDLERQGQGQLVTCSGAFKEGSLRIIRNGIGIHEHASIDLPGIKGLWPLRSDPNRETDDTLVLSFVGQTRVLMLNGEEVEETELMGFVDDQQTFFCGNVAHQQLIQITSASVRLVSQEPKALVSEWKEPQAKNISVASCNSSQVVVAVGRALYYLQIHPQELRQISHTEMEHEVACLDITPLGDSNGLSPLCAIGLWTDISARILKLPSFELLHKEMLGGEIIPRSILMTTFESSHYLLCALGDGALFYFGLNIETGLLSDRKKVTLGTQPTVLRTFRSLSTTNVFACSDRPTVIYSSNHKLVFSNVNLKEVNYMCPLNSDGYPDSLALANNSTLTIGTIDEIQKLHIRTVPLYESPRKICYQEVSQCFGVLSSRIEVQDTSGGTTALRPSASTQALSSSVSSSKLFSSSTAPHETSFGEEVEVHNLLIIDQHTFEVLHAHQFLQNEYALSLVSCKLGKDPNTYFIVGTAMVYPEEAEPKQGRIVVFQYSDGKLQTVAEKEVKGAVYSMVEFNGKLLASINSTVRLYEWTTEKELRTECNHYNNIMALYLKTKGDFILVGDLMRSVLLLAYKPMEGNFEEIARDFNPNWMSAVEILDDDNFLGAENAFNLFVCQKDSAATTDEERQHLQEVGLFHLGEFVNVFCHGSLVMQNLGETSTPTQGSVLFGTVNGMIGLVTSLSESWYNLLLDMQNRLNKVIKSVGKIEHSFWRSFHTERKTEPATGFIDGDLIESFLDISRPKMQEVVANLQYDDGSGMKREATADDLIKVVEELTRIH
Sequence of His-tagged CRBN-DDB1 complex (Q96SW2 whole entry): as the sequence (Q96SW2 whole entry) above
Sequence of His-tagged CRBN-DDB1 complex (Q16531 whole entry partner): as the sequence (Q16531 whole entry partner) above

Consider `Nc1ccccc1-c1ccc2c(c1)C(=O)NC(=O)C2` [Compound I-17, 7-(2-aminophenyl)-2,4-dihydroisoquinoline-1,3-dione], for which the IC50 (in general, the concentration at which inhibition is half-maximal) in assay [1] is greater than 100 µM; in assay [2], 30 to 100 µM.

For `COc1ccccc1-c1ccc2c(c1)C(=O)NC(=O)C2` [Compound I-18, 7-(2-Methoxyphenyl)-2,4-dihydroisoquinoline-1,3-dione], the IC50 was greater than 100 µM in assay [1] and 30 to 100 µM in assay [2].

In the case of `O=C1Cc2ccc(O)cc2C(=O)N1` [Compound I-19, 7-hydroxy-2,4-dihydroisoquinoline-1,3-dione], the IC50 in assay [1] is less than 10 µM; in assay [2] it was greater than 100 µM.

For `NC(=O)c1ccc2c(c1)C(=O)NC(=O)C2` [Compound I-20, 1,3-dioxo-2,4-dihydroisoquinoline-7-carboxamide], the IC50 in assay [1] is 30 to 100 µM; in assay [2], greater than 100 µM.

Consider `CC(=O)Nc1ccc2c(c1)C(=O)NC(=O)C2` [Compound I-21], for which the half-maximal inhibitory concentration (IC50) in assay [1] is 30 to 100 µM; in assay [2], 10 to 30 µM.

For `Nc1cccc2c1C(=O)NC(=O)C2` [Compound I-22, 8-Amino-2,4-dihydroisoquinoline-1,3-dione], the results for the IC50 in assay [1] and in assay [2] were greater than 100 µM and 10 to 30 µM, respectively.

Take `O=C1Cc2cccc(O)c2C(=O)N1` [Compound I-23]: the IC50 lay within 10 to 30 µM in assay [1] and 30 to 100 µM in assay [2].

As for `O=C1Cc2cccc(Oc3ccccc3)c2C(=O)N1` [Compound I-26, 8-phenoxy-2,4-dihydroisoquinoline-1,3-dione], the IC50 in assay [1] and in assay [2] was less than 10 µM each time.

`O=C1Cc2cccc(Nc3ccccc3)c2C(=O)N1` [Compound I-27, 8-(Phenylamino)-2,4-dihydroisoquinoline-1,3-dione]: the IC50 in assay [1] and in assay [2] was 30 to 100 µM each time.

For `O=C1NC(=O)c2c(Br)cccc21` [Compound I-29, 4-bromo-2H-isoindole-1,3-dione], the IC50 in assay [1] and in assay [2] was greater than 100 µM throughout.

For the compound `Cc1ccccc1-c1cccc2c1C(=O)NC2=O` [Compound I-31, 4-(2-methylphenyl)-2H-isoindole-1,3-dione], the IC50 in assay [1] is 30 to 100 µM; in assay [2] it was greater than 100 µM.

Regarding `Cc1ncoc1-c1cccc2c1C(=O)NC2=O` [Compound I-33, 4-(4-methyl-1,3-oxazol-5-yl)-2H-isoindole-1,3-dione], the IC50 in assay [1] and in assay [2] was greater than 100 µM throughout.

Regarding `CC(=O)Nc1cccc2c1C(=O)NC(=O)C2` [Compound I-42], the IC50 in assay [1] was in the range of 10 to 30 µM; in assay [2] it was 30 to 100 µM.

Turning to `O=C1NC(=O)C(F)(F)c2cccc(Br)c21` [Compound I-49], the IC50 in assay [1] and in assay [2] was greater than 100 µM throughout.

Take `O=C1NC(=O)C(F)(F)c2cccc(C(=O)N3CCc4ccccc43)c21` [Compound I-50]: the IC50 in assay [1] and in assay [2] was greater than 100 µM in each case.

For `N#Cc1ccccc1-c1cccc2c1C(=O)NC(=O)C2` [Compound I-52, 2-(1,3-Dioxo-2,4-dihydroisoquinolin-8-yl)benzonitrile], the 50% inhibitory concentration (IC50) in assay [1] and in assay [2] was 30 to 100 µM in each case.

Consider `O=c1[nH]c(=O)c2cc(Br)ccc2o1` [Compound I-53, 6-Bromo-3H-1,3-benzoxazine-2,4-dione], for which the IC50 in assay [1] and in assay [2] was greater than 100 µM throughout.

In the case of `O=c1[nH]c(=O)c2c(Br)cccc2o1` [Compound I-54, 5-Bromo-3H-1,3-benzoxazine-2,4-dione], the IC50 in assay [1] and in assay [2] was greater than 100 µM throughout.

Regarding `O=C1NC(=O)C2(CC2)c2cccc(Br)c21` [Compound I-58, 8′-Bromo-2′H-spiro[cyclopropane-1,4′-isoquinoline]-1′,3′-dione], the half-inhibitory concentration (IC50) in assay [1] and in assay [2] was greater than 100 µM each time.

`O=C1Cc2cccc(NC(=O)c3ccccc3)c2C(=O)N1` [Compound I-62]: the figures for the IC50 in assay [1] and in assay [2] were less than 10 µM and 30 to 100 µM, respectively.

For the compound `NCc1cccc2c1C(=O)NC(=O)C2` [Compound I-68], the IC50 in assay [1] and in assay [2] was 10 to 30 µM each time.

On to `Nc1cccc2c1C(=O)NC(=O)C2(F)F` [Compound I-71, 8-Amino-4,4-difluoro-2H-isoquinoline-1,3-dione], for which the IC50 in assay [1] and in assay [2] was less than 10 µM throughout.

For `O=C1Cc2c(F)cccc2C(=O)N1` [Compound I-72, 5-Fluoro-2,4-dihydroisoquinoline-1,3-dione], the IC50 in assay [1] was 10 to 30 µM; in assay [2], greater than 100 µM.

Turning to `O=C1Cc2cc(F)ccc2C(=O)N1` [Compound I-73, 6-Fluoro-2,4-dihydroisoquinoline-1,3-dione], the IC50 in assay [1] was 10 to 30 µM; in assay [2] it was greater than 100 µM.

Regarding `O=C1Cc2ccc(F)cc2C(=O)N1` [Compound I-74, 7-Fluoro-2,4-dihydroisoquinoline-1,3-dione], the IC50 in assay [1] and in assay [2] was 30 to 100 µM throughout.

With `O=C1Cc2cccc(F)c2C(=O)N1` [Compound I-75, 8-Fluoro-2,4-dihydroisoquinoline-1,3-dione], the IC50 fell in the range of 10 to 30 µM in assay [1] and 30 to 100 µM in assay [2].

Take `Nc1ccc2c(c1)CC(=O)NC2=O` [Compound I-77]: the IC50 in assay [1] and in assay [2] was 10 to 30 µM in each case.

Consider `Cc1cccc2c1CC(=O)NC2=O` [Compound I-78], for which the IC50 in assay [1] is 10 to 30 µM; in assay [2], greater than 100 µM.

With `Cc1ccc2c(c1)CC(=O)NC2=O` [Compound I-79], the IC50 in assay [1] is 30 to 100 µM; in assay [2] it was greater than 100 µM.

As for `COc1cc(F)ccc1N1C[C@@H]2C(=O)NC(=O)[C@@H]2C1` [Compound I-124], the figures for the IC50 in assay [1] and in assay [2] were 30 to 100 µM and greater than 100 µM, respectively.

In the case of `CCCOc1ccc(N2C[C@@H]3C(=O)NC(=O)[C@@H]3C2)cc1` [Compound I-132], the IC50 in assay [1] is 30 to 100 µM; in assay [2], greater than 100 µM.

Regarding `CCOC(=O)c1cccc(N2C[C@@H]3C(=O)NC(=O)[C@@H]3C2)c1` [Compound I-133], the IC50 is 10 to 30 µM in assay [1] and greater than 100 µM in assay [2].

On to `O=C1NC(=O)[C@@H]2CN(c3ccc(Oc4ccccc4)cc3)C[C@H]12` [Compound I-151], for which the IC50 in assay [1] is 30 to 100 µM; in assay [2], greater than 100 µM.

`O=C1NC(=O)[C@@H]2CN(C3CCCC3)C[C@H]12` [Compound I-159]: the IC50 in assay [1] and in assay [2] was greater than 100 µM throughout.

As for `Nc1ccc2c(c1)C1(CC(=O)NC1=O)NC2=O` (stereo not drawn) [Compound I-175], the IC50 in assay [1] and in assay [2] was greater than 100 µM in each case.

As to `O=C1CC2(CCc3ccccc32)C(=O)N1` (stereo not drawn) [Compound I-185], the IC50 in assay [1] and in assay [2] was greater than 100 µM throughout.

For `O=C1CC2(Cc3ccccc3C2)C(=O)N1` [Compound I-186, 1,3-dihydrospiro[indene-2,3′-pyrrolidine]-2′,5′-dione], the results for the IC50 in assay [1] and in assay [2] were 30 to 100 µM and greater than 100 µM, respectively.

On to `O=C1Cc2cccc(N3CCCCC3=O)c2C(=O)N1` [Compound I-193], for which the IC50 in assay [1] lay in the range of 10 to 30 µM; in assay [2], 30 to 100 µM.

Consider `O=C1Cc2cccc(-n3ccccc3=O)c2C(=O)N1` [Compound I-194], for which the IC50 lay within 10 to 30 µM in assay [1] and 30 to 100 µM in assay [2].

Take `O=C1C[C@]2(CCc3c([N+](=O)[O-])cccc32)C(=O)N1` [Compound I-196]: the IC50 in assay [1] and in assay [2] was greater than 100 µM each time.

For `O=C1C[C@@]2(CCc3c([N+](=O)[O-])cccc32)C(=O)N1` [Compound I-197], the IC50 in assay [1] and in assay [2] was greater than 100 µM each time.

Turning to `O=C1Cc2cccc(Oc3cccc(F)c3)c2C(=O)N1` [Compound I-198, 8-(3-Fluorophenoxy)-2,4-dihydroisoquinoline-1,3-dione], the IC50 in assay [1] was less than 10 µM; in assay [2], 10 to 30 µM.

Turning to `Cc1cccc(Oc2cccc3c2C(=O)NC(=O)C3)c1` [Compound I-199, 8-(3-Methylphenoxy)-2,4-dihydroisoquinoline-1,3-dione], the IC50 in assay [1] is less than 10 µM; in assay [2], 10 to 30 µM.

In the case of `O=C1Cc2cccc(Oc3ccccc3F)c2C(=O)N1` [Compound I-200, 8-(2-Fluorophenoxy)-2,4-dihydroisoquinoline-1,3-dione], the IC50 in assay [1] and in assay [2] was less than 10 µM each time.

For `O=C1Cc2cccc(Oc3ccccc3Cl)c2C(=O)N1` [Compound I-202, 8-(2-Chlorophenoxy)-2,4-dihydroisoquinoline-1,3-dione], the IC50 in assay [1] and in assay [2] was less than 10 µM in each case.

Turning to `Cc1cc2c(c(Oc3ccccc3)c1)C(=O)NC(=O)C2` [Compound I-203, 6-Methyl-8-phenoxy-2,4-dihydroisoquinoline-1,3-dione], the IC50 in assay [1] and in assay [2] was less than 10 µM in each case.

For `CC(C)(C)OC(=O)NCCCCCCCCCc1ccccc1Oc1cccc2c1C(=O)NC(=O)C2` [Compound I-218], the IC50 in assay [1] and in assay [2] was greater than 100 µM throughout.

`CC(C)(C)OC(=O)NCCCc1cccc(Oc2cccc3c2C(=O)NC(=O)C3)c1` [Compound I-220]: the IC50 in assay [1] was 10 to 30 µM; in assay [2], 30 to 100 µM.
